“Also recorded” adds a separate entry of the source.
Experiments:
in vivo = settings: mouse; for Cmax: Retinal Cmax; for Cmax / concentration at 1 h: adult mice; for concentration at 1 h: 1 h after OXT-328 3.5% eye drops (3 drops per eye)
Procedure: (§3) In these studies, we used adult mice, giving us more ocular tissue to work with, even though differences may exist between adult and neonatal tissues. […] The pupils were dilated with topical 1% tropicamide. At different time points after the last eye drop, the mice were euthanized and their corneas and retinas were collected quickly, immediately frozen in liquid nitrogen, and stored at −80°C until analyzed.
(§4) Briefly, each tissue sample was weighed and 100–300 μL ddH2O was added, depending on tissue weight, and homogenized.

[1] = test system: mice with oxygen-induced retinopathy (OIR); experiment: Oxygen-induced retinopathy (OIR) mouse model, AVA and NVA in retinal flat mounts; assay type: in vivo, mouse (C57BL/6); settings: for Avascular area (AVA), percent of total retinal area / Neovascular area (NVA), percent of total retinal area: mean ± SEM
Procedure: C57BL/6 mice with or without pregnancy (Subline J, specific pathogen-free class) were purchased from Jackson Laboratory, Bar Harbor, ME, and housed in room air (21% oxygen) at 25°C and a 12-h light/12-h dark cycle, with free access to food and water. Animal experiments were designed to provide intralitter control and equal size groups. We used randomization and blinded analysis. After delivery, pups from 1 litter were randomized into groups, and the number of mice in each group was n ≥ 6.
Pup litters together with their mothers were exposed to 75% oxygen from postnatal day 7 (P7) to P12 and returned to room air from P12 to P17.
For retinal flat mounts,[22] on P17, the eyeballs of the mice were enucleated and fixed in 4% paraformaldehyde for 0.5 h. Once the eyeball was fixed, its posterior segment was excised and fixed further in the same solution for 1 h, after which the retina was dissected and fixed again in 4% paraformaldehyde overnight at 4°C. Following this, the retina was washed sequentially as follows: thrice in phosphate-buffered saline (PBS) with 0.1% Tween-20 for 10 min each; in 50% methanol for 10 min; in 100% methanol for 10 min; and thrice in PBS with 0.1% Tween-20 for 10 min each. The retina was then blocked with 1% bovine serum albumin in 0.5% Triton X-100 in PBS for 30 min; incubated with Alexa Fluor 488 conjugated isolectin-B4 overnight at 4°C; washed 4 times in 0.1% Tween-20 in PBS; mounted on a glass slide; and covered with PermaFluorTM aqueous mounting medium.
Retinal flat mounts were imaged with an optical microscope at 10 × magnification, and the avascular area (AVA) and neovascular area (NVA) were delineated with ImageJ, a public domain Java image processing and analysis program. The software provides the user with the ability to determine total image surface area, AVA and NVA. Noncontinguous regions of interest such as AVA and NVA could be outlined and the areas could be summed. Results are expressed as a percent of the total surface area in dimensionless units. The person measuring the AVA and NVA was blinded as to the treatment received by that animal.
Table 1 summarizes the routes of administration of each study drug (OXT-328, Q-922, CL-717). From previous studies, we knew that our lead compound OXT-328 was subject to rapid hydrolysis by carboxylesterases.
(§1) We used a 10% solution of the water-soluble CL-717 in ddH2O with its pH adjusted to 5.0 ± 0.2 with NaOH, and its osmolality to 300 ± 20 mOsm/kg H2O with 18% NaCl. To formulate a 7.15% solution of Q-922 for topical delivery, 71.5 mg of Q-922 was dissolved in 800 μL of a 5% Tween 80/95% normal saline solution, pH 7.0. Additions of 150 μL of 15% solution of polyethylene glycol and 50 μL of 5% solution of Kolliphor EL were made to the Q-922 solution.
(§2) The pH was adjusted to 6.8 and the final volume was 1 mL. Q-922 similar to CL-717 was applied to the ocular surface as 5 μL eye drops when P12 mice were returned to room air. To prepare OXT-328 eye drops, vitamin E TPGS (D-α-tocopheryl polyethylene glycol 1000 succinate) and polyquaternium-1 were dissolved in purified water. OXT-328 (3.5%) was added to this solution, and stirred at 70°C for 30 min. This solution was then centrifuged at 13,200 rpm for 10 min and the supernatant was collected. Mannitol and boric acid were added to the harvested supernatant. After pH adjustment to 6.7 ± 0.2 using NaOH, purified water was added to the final volume. The resulting solution was sterilized by filtration through a 0.22 μm filter.
For intravitreal injections, Q-922 and OXT-328 were formulated as follows: vitamin E TPGS and polyquaternium-1 were dissolved in ddH2O and the respective drug was added, and the solution was stirred at 70°C for 30 min. This solution was then centrifuged at 13,200 rpm for 10 min and the supernatant was collected. Mannitol and boric acid were added to the supernatant to final concentrations of 3.18% (w/v) and 1.2% (w/v), respectively. […]

[2] = test system: chicken chorioallantoic membrane (CAM); experiment: Ex ovo chicken chorioallantoic membrane (CAM) angiogenesis assay; assay type: in vivo; settings: 72 h
Procedure: Fertilized chick eggs were obtained from Charles River Labs (North Franklin, CT) and transferred to a specialized incubator with an automatic rotating device (Grumbach, Lyon Technologies, Inc., Brutgerate GmbH, Germany) for 3 days at 37°C and 70% humidity. After incubation, the eggs were cracked, and the embryo was transferred to a 100 × 25 mm sterilized Petri dish in a laminar flow hood. The eggs were incubated for 7 days and the sterilized filter paper disc containing water, 50 μM of OXT-328, or 50 μM of Q-922, or 100 μM of CL-717 was plated on the yolk sac membrane. The filter papers were treated with each reagent twice per day. Three days later, the angiogenic response was expressed as microvessel density in the CAM area determined under a microscope.[25]

[3] = Uptake and biodistribution of CL-717 in explanted human eyes; assay type: in vitro ADME; settings: explanted human eye, tissues at 1 h, 35.5°C
Procedure: Human eyes were obtained through the Lions Eye Bank for Long Island, Valley Stream, NY. […] The donor's identity was protected by de-identifying each sample. Following harvesting, they were transported on ice and delivered to the laboratory for study within 2 h after enucleation.
The anterior surface of explanted human eyes was immersed in CL-717 10% solution for 1 or 10 min, followed by washing with ddH2O. The eyes were placed in a Petri dish with their anterior part facing up, and the dish was covered and incubated for 1 h at 35.5°C, the normal in vivo eye temperature.

[4] = Ocular pharmacokinetics and biodistribution in adult mice (HPLC tissue levels); settings: for concentration at 1 h: cornea, topical
Procedure: as §3, §4

[5] = set-up: method as in PMID 21955327; settings: systemically administered, rapidly hydrolyzed; cited from earlier work
[6] = Safety: side effects during administration in mice; assay type: in vivo, mouse
Procedure: as §1, §2

[7] = 10% eye drops, 5 μL 5x/day, P12-P17
[8] = 10% eye drops, 5 μL 5x/day, P12-P17, P17
[9] = single 1 μL intravitreal injection of 1% on P12, retinas on P17
[10] = adult mice, single 1 μL intravitreal injection of OXT-328 1%
[11] = read-out: Retinal Cmax, adult mice, single 1 μL intravitreal injection of OXT-328 1%, mean ± SEM
[12] = 50 μM on filter disc twice per day
[13] = intraperitoneal 100 mg/kg once daily P7-P17
[14] = intraperitoneal 150 mg/kg once daily P7-P17
[15] = intraperitoneal 150 mg/kg once daily P7-P17, P17
[16] = single 1 μL intravitreal injection of 1% on P12, P17

Structure (SMILES): CCOP(=O)(NCCN1CCN(C(=O)CC2=C(C)/C(=C/c3ccc([S+](C)[O-])cc3)c3ccc(F)cc32)CC1)OCC (stereo not drawn) [CL-717, (Z)-diethyl 2-(4-(2-(5-fluoro-2-methyl-1-(4-(methylsulfinyl)benzylidene)-1H-inden-3-yl)acetyl)piperazin-1-yl)ethylphosphoramidate]
- Tmax (in vivo; topical or ocular): 0.5 h
- half-life (in vivo; topical or ocular): 4.7 h
- Cmax (in vivo; topical or ocular, 3 eye drops of CL-717 10% on the ocular surface): 2.5 µM
- AVA reduction versus vehicle [1, 7]: 65%
- NVA reduction versus vehicle [1, 7]: 63%
- Avascular area (AVA), percent of total retinal area [1, 8]: 5.8% ± 0.8%
- Neovascular area (NVA), percent of total retinal area [1, 8]: 8.3% ± 1.6%
- Reduction of average new vessel formation versus control ([2]; 100 μM on filter disc twice per day): 34.2%
- CL-717 level in retina ([3]; ocular surface in 10% solution for 1 min): 12.6 µM
- CL-717 level in retina ([3]; ocular surface in 10% solution for 10 min): 46.6 µM

Structure (SMILES): CCOP(=O)(OCC)OCCCCOC(=O)CC1=C(C)/C(=C/c2ccc([S+](C)[O-])cc2)c2ccc(F)cc21 (stereo not drawn) [OXT-328, phospho-sulindac]
- half-life (in vivo): 4.8 h
- concentration at 1 h (in vivo; Level in the cornea, mean ± SEM): 0 µM
- concentration at 1 h (in vivo; Level in the retina, mean ± SEM): 0.4 ± 0.2 µM
- Cmax (in vivo; single 1 μL intravitreal injection of OXT-328 1%, mean ± SEM): 516 ± 64 µM
- Effect on OIR ([1]; eye drops, data not shown): no effect
- Avascular area (AVA), percent of total retinal area [1, 9]: 6.9% ± 2.4%
- Neovascular area (NVA), percent of total retinal area [1, 9]: 5.6% ± 1.9%
- Retinal Tmax [4, 10]: 2 h
- Cmax [4, 11]: 516 ± 64.4 µM
- Reduction of average new vessel formation versus control [2, 12]: 29.3%
- Level in plasma and many tissues like the eye after systemic administration [5]: essentially undetectable

Structure (SMILES): CCOP(=O)(NCCCCNC(=O)c1ccccc1SC/C=C(\C)CC/C=C(\C)CCC=C(C)C)OCC [Q-922, diethyl 4-(2-((2E,6E)-3,7,11-trimethyldodeca-2,6,10-trienylthio)benzamido)butylphosphoramidate]
- Side effects on the ocular surface ([6]; Q-922 eye drops (7.15% formulation) applied to the ocular surface of mice): erythema and mild edema on the ocular surface; also recorded: erythema and edema restricted to the cornea and conjunctiva
- Time for side effects to subside after treatment was discontinued ([6]; Q-922 eye drops applied to the ocular surface of mice): ≤ 48 h
- Effect on AVA [1, 13]: no significant effect
- Effect on NVA [1, 13]: no significant effect
- AVA reduction versus vehicle [1, 14]: 28%
- NVA reduction versus vehicle [1, 14]: 61%
- Avascular area (AVA), percent of total retinal area [1, 15]: 8.4% ± 0.5%
- Neovascular area (NVA), percent of total retinal area [1, 15]: 9.5% ± 2.6%
- AVA reduction versus vehicle [1, 16]: 75%
- NVA reduction versus vehicle [1, 16]: 52%
- Avascular area (AVA), percent of total retinal area [1, 9]: 3.5% ± 0.5%
- Neovascular area (NVA), percent of total retinal area [1, 9]: 5.2% ± 1.7%
- Reduction of average new vessel formation versus control [2, 12]: 41.4%

Structure (SMILES): CSc1ccc(/C=C2/C(C)=C(CC(=O)O)c3cc(F)ccc32)cc1 [sulindac sulfide]
- Retinal Cmax ([4]; adult mice, single 1 μL intravitreal injection of OXT-328 1%, mean ± SEM): undetectable
- concentration at 1 h ([4]; mouse): 3.1 ± 0.6 µM

Structure (SMILES): CC1=C(CC(=O)O)c2cc(F)ccc2/C1=C\c1ccc(S(C)(=O)=O)cc1 [sulindac sulfone]
- Level in the cornea ([4]; adult mice, 1 h after OXT-328 3.5% eye drops (3 drops per eye), mean ± SEM): 3.8 ± 0.7 µM
- Retinal Cmax, fold lower than OXT-328 [4, 10]: > 30 fold
- Cmax [4, 11]: 14.5 ± 2.4 µM

Structure (SMILES): CC1=C(CC(=O)O)c2cc(F)ccc2/C1=C\c1ccc([S+](C)[O-])cc1 (stereo not drawn) [sulindac, reference compound]
- Retinal Cmax, fold lower than OXT-328 [4, 10]: > 30 fold
- concentration at 1 h ([4]; mouse): 48.3 ± 7.9 µM
- Cmax ([4]; mouse, retina, other: intravitreal injection): 7.1 ± 2.4 µM
